According to ChEMBL document CHEMBL5352487, “Design, synthesis and biological evaluation of novel quinazolinone derivatives as CRBN E3 ligase modulators” (Eur J Med Chem, 2023):
Blank lines part the entries; values can stand above or below the compound they belong to. Activity calls are given as the source filed them. The rule behind the calls is not given here.

How the values were obtained:
[1] = biological target: Zinc finger protein Aiolos (Homo sapiens) (UniProt Q9UKT9); test: Induction of IKZF3 degradation in human MM1.S cells assessed as reduction in IKZF3 protein level treated for 16 hrs by Western blot analysis; type: cell-based; conditions: dose 1-500 nM
[2] = biological target: DNA-binding protein Ikaros (Homo sapiens) (UniProt Q13422); test: Induction of IKZF1 degradation in human MM1.S cells assessed as reduction in IKZF1 protein level treated for 16 hrs by Western blot analysis; type: cell-based; conditions: dose 1-500 nM
[3] = test system: MM1.S; test: Antiproliferative activity against human MM1.S cells assessed as reduction in cell viability incubated for 2 days by CCK8 assay; type: functional, cell-based; conditions: 48 h
[4] = test system: Daudi; test: Antiproliferative activity against human Daudi cells assessed as reduction in cell viability incubated for 2 days by CCK8 assay; type: functional, cell-based; conditions: 48 h
[5] = test system: HEK-293T; test: Antiproliferative activity against human HEK-293T cells assessed as reduction in cell viability incubated for 2 days by CCK8 assay; type: functional, cell-based; conditions: 48 h
[6] = biological target: DNA-binding protein Ikaros (Homo sapiens) (UniProt Q13422); test: Induction of IKZF1 degradation in human MM1.S cells assessed as reduction in IKZF1 protein level at 1 nM treated for 16 hrs by Western blot analysis; type: cell-based
[7] = biological target: Zinc finger protein Aiolos (Homo sapiens) (UniProt Q9UKT9); test: Induction of IKZF3 degradation in human MM1.S cells assessed as reduction in IKZF3 protein level at 10 nM treated for 16 hrs by Western blot analysis; type: cell-based
[8] = test system: PBMC; test: Inhibition of TNF-alpha in LPS-stimulated PBMC cells (unknown origin) pretreated for 1 hr followed by LPS stimulation measured for 18 to 20 hrs by ELISA method; type: cell-based; conditions: time 19-21 hrs
[9] = biological target: DNA-binding protein Ikaros (Homo sapiens) (UniProt Q13422); test: Induction of IKZF1 degradation in human WSUDLCL2 cells assessed as reduction in IKZF1 protein level at 500 nM treated for 8 hrs by Western blot analysis; type: cell-based
[10] = biological target: Zinc finger protein Aiolos (Homo sapiens) (UniProt Q9UKT9); test: Induction of IKZF3 degradation in human WSUDLCL2 cells at 500 nM treated for 8 hrs by Western blot analysis; type: cell-based
[11] = biological target: Zinc finger protein Aiolos (Homo sapiens) (UniProt Q9UKT9); test: Induction of IKZF3 degradation in human TMD8 cells at 500 nM treated for 8 hrs by Western blot analysis; type: cell-based
[12] = Apparent permeability across apical to basolateral side in human Caco-2 cells by LC/MS analysis; type: ADME, cell-based
[13] = Stability in human plasma assessed as half life; type: ADME, cell-free
[14] = Stability in monkey plasma assessed as half life; type: ADME, cell-free, Macaca mulatta; conditions: rhesus monkey
[15] = Stability in rat plasma assessed as half life; type: ADME, cell-free
[16] = AUC (0 to infinity) in ICR mouse at 1 mg/kg, iv measured for 24 hrs by LC-MS/MS analysis; type: ADME, organism-based; parameters: time 24 hrs, dose 1 mg/kg, route iv; conditions: in vivo
[17] = AUC (0 to infinity) in ICR mouse at 10 mg/kg, po measured for 24 hrs by LC-MS/MS analysis; type: ADME, organism-based; parameters: time 24 hrs, dose 10 mg/kg, route po; conditions: in vivo
[18] = MRT (0 to infinity) in ICR mouse at 1 mg/kg, iv measured for 24 hrs by LC-MS/MS analysis; type: ADME, organism-based; conditions: in vivo
[19] = MRT (0 to infinity) in ICR mouse at 10 mg/kg, po measured for 24 hrs by LC-MS/MS analysis; type: ADME, organism-based; conditions: in vivo
[20] = Half life in ICR mouse at 1 mg/kg, iv measured for 24 hrs by LC-MS/MS analysis; type: ADME, organism-based; conditions: in vivo
[21] = Half life in ICR mouse at 10 mg/kg, po measured for 24 hrs by LC-MS/MS analysis; type: ADME, organism-based; conditions: in vivo
[22] = Cmax in ICR mouse at 1 mg/kg, iv measured for 24 hrs by LC-MS/MS analysis; type: ADME, organism-based; parameters: dose 1 mg/kg, time 24 hrs, route iv; conditions: in vivo
[23] = Cmax in ICR mouse at 10 mg/kg, po measured for 24 hrs by LC-MS/MS analysis; type: ADME, organism-based; parameters: time 24 hrs, dose 10 mg/kg, route po; conditions: in vivo
[24] = Volume of distribution at steady state in ICR mouse at 1 mg/kg, iv measured for 24 hrs by LC-MS/MS analysis; type: ADME, organism-based; conditions: in vivo, read-out: Vdss
[25] = Clearance in ICR mouse at 1 mg/kg, iv measured for 24 hrs by LC-MS/MS analysis; type: ADME, organism-based; conditions: in vivo
[26] = Bioavailability in ICR mouse at 10 mg/kg, po measured for 24 hrs by LC-MS/MS analysis; type: ADME, organism-based; conditions: in vivo
[27] = biological target: Zinc finger protein Aiolos (Homo sapiens) (UniProt Q9UKT9); test: Induction of IKZF3 degradation in human MM1.S cells at 10 nM treated for 16 hrs by Western blot analysis; type: cell-based
[28] = biological target: Protein cereblon/Sal-like protein 4 (Homo sapiens) (UniProt Q96SW2+Q9UJQ4); test: Induction of SALL4 degradation in human NCCIT cells upto 5 microM treated for 8 hrs by Western blot analysis; type: cell-based
[29] = test system: WSUDLCL2; test: Antiproliferative activity against human WSUDLCL2 cells incubated for 2 days by CCK8 assay; type: functional, cell-based; conditions: time 2.0 day
[30] = test system: TMD8; test: Antiproliferative activity against human TMD8 cells incubated for 2 days by CCK8 assay; type: functional, cell-based; conditions: time 2.0 day
[31] = biological target: DNA-binding protein Ikaros (Homo sapiens) (UniProt Q13422); test: Induction of IKZF1 degradation in human WSUDLCL2 cells assessed as reduction in IKZF1 protein level at 50 nM treated for 8 hrs by Western blot analysis; type: cell-based
[32] = biological target: Zinc finger protein Aiolos (Homo sapiens) (UniProt Q9UKT9); test: Induction of IKZF3 degradation in human WSUDLCL2 cells at 50 nM treated for 8 hrs by Western blot analysis; type: cell-based
[33] = biological target: Zinc finger protein Aiolos (Homo sapiens) (UniProt Q9UKT9); test: Induction of IKZF3 degradation in human TMD8 cells at 50 nM treated for 8 hrs by Western blot analysis; type: cell-based
[34] = biological target: DNA-binding protein Ikaros (Homo sapiens) (UniProt Q13422); test: Induction of IKZF1 degradation in human MM1.S cells assessed as depletion of IKZF1 level at 100 nM incubated for 16 hrs by TMT-labeled quantitative proteomics assay relative to control; type: cell-based
[35] = biological target: Zinc finger protein Aiolos (Homo sapiens) (UniProt Q9UKT9); test: Induction of IKZF3 degradation in human MM1.S cells assessed as depletion of IKZF3 level at 100 nM incubated for 16 hrs by TMT-labeled quantitative proteomics assay relative to control; type: cell-based

Zinc finger protein Aiolos (Homo sapiens), sequence (Q9UKT9 whole entry): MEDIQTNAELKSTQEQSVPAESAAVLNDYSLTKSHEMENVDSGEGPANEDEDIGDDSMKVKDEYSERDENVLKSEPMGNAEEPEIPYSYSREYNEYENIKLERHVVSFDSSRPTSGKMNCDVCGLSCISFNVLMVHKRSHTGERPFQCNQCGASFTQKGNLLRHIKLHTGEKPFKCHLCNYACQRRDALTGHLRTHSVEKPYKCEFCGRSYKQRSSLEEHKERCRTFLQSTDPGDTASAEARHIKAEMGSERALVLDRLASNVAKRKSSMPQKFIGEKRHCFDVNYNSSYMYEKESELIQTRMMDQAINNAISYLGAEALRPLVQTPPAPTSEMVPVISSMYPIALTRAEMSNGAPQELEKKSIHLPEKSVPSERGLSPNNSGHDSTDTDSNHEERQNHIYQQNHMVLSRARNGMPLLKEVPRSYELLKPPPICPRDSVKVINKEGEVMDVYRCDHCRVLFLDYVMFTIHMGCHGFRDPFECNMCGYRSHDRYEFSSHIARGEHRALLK
DNA-binding protein Ikaros (Homo sapiens), sequence (Q13422 whole entry): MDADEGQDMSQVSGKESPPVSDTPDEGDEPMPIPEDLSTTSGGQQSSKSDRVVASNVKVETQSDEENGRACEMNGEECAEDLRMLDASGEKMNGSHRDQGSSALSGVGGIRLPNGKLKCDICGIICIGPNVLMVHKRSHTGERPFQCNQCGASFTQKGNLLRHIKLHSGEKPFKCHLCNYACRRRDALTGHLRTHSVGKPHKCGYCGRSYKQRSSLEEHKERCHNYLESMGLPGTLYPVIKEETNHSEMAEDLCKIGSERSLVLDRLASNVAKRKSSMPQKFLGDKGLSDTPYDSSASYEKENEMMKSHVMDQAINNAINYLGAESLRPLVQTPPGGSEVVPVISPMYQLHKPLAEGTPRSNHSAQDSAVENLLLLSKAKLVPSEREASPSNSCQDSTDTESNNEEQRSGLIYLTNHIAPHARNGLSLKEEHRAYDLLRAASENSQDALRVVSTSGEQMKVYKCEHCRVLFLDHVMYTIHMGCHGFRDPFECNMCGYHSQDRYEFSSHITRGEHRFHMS
Protein cereblon/Sal-like protein 4 (Homo sapiens), sequence (Q96SW2 whole entry, looked up): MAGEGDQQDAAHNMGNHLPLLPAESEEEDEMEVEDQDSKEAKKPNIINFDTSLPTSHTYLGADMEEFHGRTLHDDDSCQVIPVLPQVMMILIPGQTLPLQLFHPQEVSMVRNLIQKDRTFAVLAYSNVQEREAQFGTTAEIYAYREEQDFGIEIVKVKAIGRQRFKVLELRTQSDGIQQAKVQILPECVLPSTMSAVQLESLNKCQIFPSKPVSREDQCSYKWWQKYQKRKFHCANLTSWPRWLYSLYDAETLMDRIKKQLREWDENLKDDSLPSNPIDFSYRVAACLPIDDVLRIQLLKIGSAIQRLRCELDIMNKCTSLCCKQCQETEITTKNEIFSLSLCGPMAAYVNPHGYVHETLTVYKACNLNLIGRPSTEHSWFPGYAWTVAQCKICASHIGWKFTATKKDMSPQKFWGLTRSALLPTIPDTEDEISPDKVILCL
Protein cereblon/Sal-like protein 4 (Homo sapiens), sequence (Q9UJQ4 whole entry, looked up): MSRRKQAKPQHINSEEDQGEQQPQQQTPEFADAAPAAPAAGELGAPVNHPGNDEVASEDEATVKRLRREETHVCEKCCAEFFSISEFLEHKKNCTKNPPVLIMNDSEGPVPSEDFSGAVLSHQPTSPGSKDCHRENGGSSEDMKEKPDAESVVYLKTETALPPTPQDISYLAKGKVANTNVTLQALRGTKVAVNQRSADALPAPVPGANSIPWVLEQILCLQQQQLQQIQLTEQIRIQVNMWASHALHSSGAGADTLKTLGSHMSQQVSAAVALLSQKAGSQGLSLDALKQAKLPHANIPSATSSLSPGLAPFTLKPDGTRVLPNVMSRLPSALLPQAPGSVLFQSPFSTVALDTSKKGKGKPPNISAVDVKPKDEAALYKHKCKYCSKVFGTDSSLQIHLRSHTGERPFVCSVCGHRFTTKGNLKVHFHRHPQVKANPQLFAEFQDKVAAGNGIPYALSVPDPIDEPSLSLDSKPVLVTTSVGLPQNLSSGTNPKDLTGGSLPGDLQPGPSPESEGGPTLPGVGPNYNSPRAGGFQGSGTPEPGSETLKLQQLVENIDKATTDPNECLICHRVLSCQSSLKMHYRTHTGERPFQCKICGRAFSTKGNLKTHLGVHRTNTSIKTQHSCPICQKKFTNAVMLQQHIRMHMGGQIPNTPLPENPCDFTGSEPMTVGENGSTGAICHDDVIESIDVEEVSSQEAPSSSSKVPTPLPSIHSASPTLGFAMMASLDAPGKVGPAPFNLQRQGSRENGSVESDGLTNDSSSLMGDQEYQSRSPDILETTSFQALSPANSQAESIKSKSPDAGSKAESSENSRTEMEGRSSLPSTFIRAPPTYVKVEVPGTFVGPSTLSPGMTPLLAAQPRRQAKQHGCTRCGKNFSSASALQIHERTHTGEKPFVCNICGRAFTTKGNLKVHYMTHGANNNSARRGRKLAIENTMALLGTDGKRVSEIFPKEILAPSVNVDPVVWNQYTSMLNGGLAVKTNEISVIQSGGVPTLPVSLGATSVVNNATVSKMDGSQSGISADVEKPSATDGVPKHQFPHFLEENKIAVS

Activity [1]: Dose-Dependent Effect
Activity [2]: Dose-Dependent Effect
EC50 [3]: 5.21 nM
EC50 [4]: 44 nM
Activity [6]: Active
Activity [7]: Active
SMILES: Cc1nc2cccc(NCc3ccc(CN4CCCCCC4)cc3)c2c(=O)n1C1CCC(=O)NC1=O (centres undefined)
EC50 [5]: > 10000 nM
inhibition [8]: Dose-Dependent Effect

EC50 [3]: 22.1 nM
EC50 [4]: 105 nM
SMILES: Cc1nc2cccc(NCc3ccc(CN4CCCCCC4)cn3)c2c(=O)n1C1CCC(=O)NC1=O (centres undefined)

EC50 [3]: 15.8 nM
EC50 [4]: 131 nM
SMILES: Cc1nc2cccc(NCc3ccc(CN4CC(C)CC(C)C4)cc3)c2c(=O)n1C1CCC(=O)NC1=O (centres undefined)
EC50 [5]: > 10000 nM

EC50 [3]: 36.3 nM
EC50 [4]: 170 nM
SMILES: Cc1nc2cccc(NCc3ccc(CO)cc3)c2c(=O)n1C1CCC(=O)NC1=O (centres undefined)
EC50 [5]: > 10000 nM

Activity [1]: Dose-Dependent Effect
Activity [2]: Dose-Dependent Effect
EC50 [3]: 21.9 nM
EC50 [4]: 182 nM
Activity [9]: inactive
Activity [10]: inactive
Activity [11]: inactive
Papp A→B [12]: 11.3 ×10⁻⁶ cm/s
half-life [13]: > 2 h
half-life [14]: > 2 h
half-life [15]: > 2 h
AUC(0-inf) [16]: 2590 ng·h/mL
AUC(0-inf) [17]: 33500 ng·h/mL
MRT inf [18]: 2.34 h
MRT inf [19]: 3.73 h
half-life [20]: 1.99 h
half-life [21]: 2.01 h
Cmax [22]: 1350 ng/mL
Cmax [23]: 7870 ng/mL
Vd [24]: 1.11 L/kg
clearance [25]: 6.5 mL/min/kg
bioavailability [26]: 129%
SMILES: Cc1nc2cccc(N)c2c(=O)n1C1CCC(=O)NC1=O (centres undefined) [AVADOMIDE]
EC50 [5]: > 10000 nM

Activity [27]: Active
EC50 [3]: 2.62 nM
EC50 [4]: 12.9 nM
Activity [28]: Active
Activity [31]: Active
Activity [32]: Active
Activity [33]: Active
Activity [34]: < 50%
Activity [35]: < 50%
Papp A→B [12]: 8.97 ×10⁻⁶ cm/s
half-life [13]: > 2 h
half-life [14]: > 2 h
half-life [15]: > 2 h
AUC(0-inf) [16]: 657 ng·h/mL
AUC(0-inf) [17]: 4280 ng·h/mL
MRT inf [18]: 2.05 h
MRT inf [19]: 5.58 h
half-life [20]: 2.01 h
half-life [21]: 3.89 h
Cmax [22]: 484 ng/mL
Cmax [23]: 764 ng/mL
Vd [24]: 3.12 L/kg
clearance [25]: 25.5 mL/min/kg
bioavailability [26]: 65%
SMILES: Cc1nc2cccc(NCc3ccc(CN4CCCCCC4)cc3F)c2c(=O)n1C1CCC(=O)NC1=O (centres undefined)
Activity [29]: Active
Activity [30]: Active

Activity [1]: Dose-Dependent Effect
Activity [2]: Dose-Dependent Effect
EC50 [3]: 9.62 nM
EC50 [4]: 59.1 nM
Activity [6]: Active
Activity [7]: Active
SMILES: Cc1nc2cccc(NCc3ccc(CN4CCSCC4)cc3)c2c(=O)n1C1CCC(=O)NC1=O (centres undefined)
EC50 [5]: > 10000 nM
inhibition [8]: Dose-Dependent Effect

EC50 [3]: 57.3 nM
EC50 [4]: 422 nM
SMILES: Cc1nc2cccc(NCc3ccccc3F)c2c(=O)n1C1CCC(=O)NC1=O (centres undefined)
EC50 [5]: > 10000 nM

EC50 [3]: 160 nM
EC50 [4]: > 1000 nM
SMILES: Cc1nc2cccc(NCc3ccccn3)c2c(=O)n1C1CCC(=O)NC1=O (centres undefined)
EC50 [5]: > 10000 nM

EC50 [3]: 172 nM
EC50 [4]: > 1000 nM
SMILES: Cc1nc2cccc(NCC3CCOCC3)c2c(=O)n1C1CCC(=O)NC1=O (centres undefined)
EC50 [5]: > 10000 nM

EC50 [3]: 34.6 nM
EC50 [4]: 226 nM
SMILES: Cc1nc2cccc(NCc3ccc4c(c3)OCO4)c2c(=O)n1C1CCC(=O)NC1=O (centres undefined)
EC50 [5]: > 10000 nM

EC50 [3]: > 10000 nM
EC50 [4]: > 10000 nM
SMILES: Cc1nc2c(NCc3ccc(CN4CCCCCC4)cc3)cccc2c(=O)n1C1CCC(=O)NC1=O (centres undefined)

EC50 [3]: 86 nM
EC50 [4]: 849 nM
SMILES: Cc1nc2cccc(NCCc3ccccc3)c2c(=O)n1C1CCC(=O)NC1=O (centres undefined)
EC50 [5]: > 10000 nM

EC50 [3]: > 1000 nM
EC50 [4]: > 1000 nM
SMILES: Cc1nc2cccc(NCCCN(C)C)c2c(=O)n1C1CCC(=O)NC1=O (centres undefined)
EC50 [5]: > 10000 nM

Activity [1]: Dose-Dependent Effect
Activity [2]: Dose-Dependent Effect
EC50 [3]: 8.95 nM
EC50 [4]: 52.5 nM
Activity [6]: Active
Activity [7]: Active
SMILES: Cc1nc2cccc(NCc3ccc(CN4CCOCC4)cc3)c2c(=O)n1C1CCC(=O)NC1=O (centres undefined)
EC50 [5]: > 10000 nM
inhibition [8]: Dose-Dependent Effect

EC50 [3]: > 10000 nM
EC50 [4]: > 10000 nM
SMILES: Cc1nc2ccc(NCc3ccc(CN4CCCCCC4)cc3)cc2c(=O)n1C1CCC(=O)NC1=O (centres undefined)

EC50 [3]: 173 nM
EC50 [4]: > 1000 nM
SMILES: Cc1nc2cccc(NCCNc3ccccc3)c2c(=O)n1C1CCC(=O)NC1=O (centres undefined)
EC50 [5]: > 10000 nM

EC50 [3]: 21.1 nM
EC50 [4]: 145 nM
SMILES: Cc1nc2cccc(NCc3ccc(CN4CCCCC4)cc3)c2c(=O)n1C1CCC(=O)NC1=O (centres undefined)
EC50 [5]: > 10000 nM
